The source of these data is patent US8686184B2, “Neprilysin inhibitors” (Theravance, Inc., priority 2011, dated 2014).

For this assay, the target named is T1, human neprilysin (EC 3.4.24.11; NEP) (Homo sapiens, UniProt P08473).
T1 construct: purchased R&D Systems, Minneapolis, Minn; 1182-ZN
As to the kind of experiment: In vitro enzyme inhibition assay at human NEP (fluorogenic peptide substrate). Type of assay: biochemical. Particulars: recombinant human NEP; 37° C.; substrate Mca-D-Arg-Arg-Leu-Dap-(Dnp)-OH 10 μM; values given as ranges; read-out: pKi values at human NEP (converted). In outline: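 Recombinant human NEP pre-incubated 30 min at 37 °C with compound (10 μM to 20 pM), then cleaved 20 min at 37 °C with 10 μM Mca-D-Arg-Arg-Leu-Dap-(Dnp)-OH in HEPES pH 7.5, NaCl, Tween-20, 10 μM ZnSO4. Stopped with acetic acid; fluorescence Ex 320/Em 405 nm; apparent Ki from v=v0/[1+(I/K′)] fit, reported as pKi.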

T1 sequence (P08473 52-750 limits assumed): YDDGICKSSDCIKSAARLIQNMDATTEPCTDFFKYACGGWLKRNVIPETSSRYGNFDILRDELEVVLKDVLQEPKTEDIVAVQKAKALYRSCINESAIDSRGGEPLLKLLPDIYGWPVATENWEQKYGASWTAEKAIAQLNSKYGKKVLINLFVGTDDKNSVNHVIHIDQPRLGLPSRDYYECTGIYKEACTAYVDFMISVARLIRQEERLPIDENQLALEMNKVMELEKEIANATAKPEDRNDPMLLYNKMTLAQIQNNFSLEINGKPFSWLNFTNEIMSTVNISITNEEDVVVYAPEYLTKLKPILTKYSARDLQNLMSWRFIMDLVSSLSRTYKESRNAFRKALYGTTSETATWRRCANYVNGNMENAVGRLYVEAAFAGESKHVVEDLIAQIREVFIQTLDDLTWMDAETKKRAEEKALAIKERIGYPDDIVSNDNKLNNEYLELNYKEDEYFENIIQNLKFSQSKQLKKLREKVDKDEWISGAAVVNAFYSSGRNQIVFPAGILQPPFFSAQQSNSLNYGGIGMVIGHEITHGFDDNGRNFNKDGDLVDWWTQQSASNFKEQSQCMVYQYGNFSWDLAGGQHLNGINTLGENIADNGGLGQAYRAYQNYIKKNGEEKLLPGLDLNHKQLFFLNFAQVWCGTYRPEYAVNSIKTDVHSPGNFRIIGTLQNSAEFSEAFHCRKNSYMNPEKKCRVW

Turning to `CCc1ccc(C(=O)N[C@H](Cc2ccccc2)[C@@H](O)C(=O)O)cc1NC(=O)Nc1sc(C)cc1C(=O)O` [Example 10-77, 2-{3-[5-((1R,2R)-1-Benzyl-2-carboxy-2-hydroxy-ethylcarbamoyl)-2-ethyl-phenyl]-ureido}-5-methyl-thiophene-3-carboxylic acid], the Ki was at most 1 nM. `CCc1ccc(C(=O)N[C@H](Cc2ccccc2)[C@@H](O)C(=O)O)cc1NC(=O)Nc1ccsc1C(=O)O` [Example 10-78, 3-{3-[5-((1R,2R)-1-Benzyl-2-carboxy-2-hydroxy-ethylcarbamoyl)-2-ethyl-phenyl]-ureido}-thiophene-2-carboxylic acid]: the Ki is 12.6 to 100 nM. The result for `CCCCOC(=O)Nc1cc(C(=O)N[C@H](Cc2ccccc2)[C@@H](O)C(=O)O)ccc1CC` [Example 10-79, (2R,3R)-3-(3-Butoxycarbonylamino-4-ethyl-benzoylamino)-2-hydroxy-4-phenyl-butyric acid] reads 12.6 to 100 nM; that for `CC(C)c1ccc(C(=O)N[C@H](Cc2ccccc2)[C@@H](O)C(=O)O)cc1-c1ccncc1` [Example 10-80, (2R,3R)-2-Hydroxy-3-(4-isopropyl-3-pyridin-4-yl-benzoylamino)-4-phenyl-butyric acid], 12.6 to 100 nM. As to `CC(C)c1ccc(C(=O)N[C@H](Cc2ccccc2)[C@@H](O)C(=O)O)cc1-c1cccc(C(=O)N(C)C)c1` [Example 10-81, (2R,3R)-3-[(3′-Dimethylcarbamoyl-6-isopropyl-biphenyl-3-carbonyl)-amino]-2-hydroxy-4-phenyl-butyric acid], the Ki is 12.6 to 100 nM. Consider `Cc1cc(C(=O)N[C@H](Cc2ccccc2)[C@@H](O)C(=O)O)cc(C)c1F` [Example 10-82, (2R,3R)-3-(4-Fluoro-3,5-dimethyl-benzoylamino)-2-hydroxy-4-phenyl-butyric acid], for which the Ki is 12.6 to 100 nM.

Consider `O=C(O)C[C@@H](Cc1ccccc1Cl)NC(=O)CCCc1ccccc1C(=O)O` [Example 11, 2-{3-[(R)-1-Carboxymethyl-2-(2-chlorophenyl)-ethylcarbamoyl]-propyl}-benzoic Acid], for which the Ki was 1.26 to 10 nM. On to `Cc1ccc(C(=O)N[C@@H](CC(=O)O)Cc2ccccc2Cl)cc1-c1ccccc1C(=O)O` [Example 12, 5′-[(R)-2-Carboxy-1-(2-chloro-benzyl)-ethylcarbamoyl]-2′-methyl-biphenyl-2-carboxylic Acid], for which the Ki was 1.26 to 10 nM. On to `O=C(O)Cc1ccccc1-c1cccc(C(=O)N[C@@H](CC(=O)O)Cc2ccccc2Cl)c1` [Example 13-1, (R)-3-[(2′-Carboxymethyl-biphenyl-3-carbonyl)-amino]-4-(2-chloro-phenyl)-butyric acid], for which the Ki is 12.6 to 100 nM. Then `O=C(O)C[C@@H](Cc1ccccc1Cl)NC(=O)c1cccc(-c2ccccc2C(=O)O)c1` [Example 13-2, 3′-[(R)-2-Carboxy-1-(2-chloro-benzyl)-ethylcarbamoyl]-biphenyl-2-carboxylic acid], with 1.26 to 10 nM. As for `Cc1ccc(C(=O)N[C@@H](CC(=O)O)Cc2ccccc2Cl)cc1-c1ccccc1CC(=O)O` [Example 13-3, (R)-3-[(2′-Carboxymethyl-6-methyl-biphenyl-3-carbonyl)-amino]-4-(2-chloro-phenyl)-butyric acid], the Ki was 1.26 to 10 nM. Turning to `O=C(O)Cc1ccccc1-c1ccc(C(=O)N[C@@H](CC(=O)O)Cc2ccccc2Cl)cc1` [Example 13-4, (R)-3-[(2′-Carboxymethyl-biphenyl-4-carbonyl)-amino]-4-(2-chloro-phenyl)-butyric acid], the Ki is 12.6 to 100 nM. The result for `CC1=NN(c2ccc(C(=O)N[C@@H](CC(=O)O)Cc3ccccc3Cl)cc2Cl)C(=O)C1` [Example 13-5, (R)-3-[3-Chloro-4-(3-methyl-5-oxo-4,5-dihydro-pyrazol-1-yl)-benzoylamino]-4-(2-chloro-phenyl)-butyric acid] reads 12.6 to 100 nM; that for `CC1=NN(c2ccc(C(=O)N[C@@H](CC(=O)O)Cc3ccccc3Cl)cc2)C(=O)C1` [Example 13-6, (R)-4-(2-Chlorophenyl)-3-[4-(3-methyl-5-oxo-4,5-dihydro-pyrazol-1-yl)-benzoylamino]-butyric acid], 12.6 to 100 nM. For `CC1=NN(c2cccc(C(=O)N[C@@H](CC(=O)O)Cc3ccccc3Cl)c2)C(=O)C1` [Example 13-8, (R)-4-(2-Chlorophenyl)-3-[3-(3-methyl-5-oxo-4,5-dihydro-pyrazol-1-yl)-benzoylamino]-butyric acid], the Ki is 12.6 to 100 nM. The result for `CCCC1=NN(c2cccc(C(=O)N[C@@H](CC(=O)O)Cc3ccccc3Cl)c2)C(=O)C1` [Example 13-9, (R)-4-(2-Chlorophenyl)-3-[3-(5-oxo-3-propyl-4,5-dihydro-pyrazol-1-yl)-benzoylamino]-butyric acid] reads 12.6 to 100 nM; that for `CCc1ccc(C(=O)N[C@@H](CC(=O)O)Cc2ccccc2Cl)cc1-n1c(=O)[nH]c2sc(C)cc2c1=O` [Example 13-10, (R)-4-(2-Chlorophenyl)-3-[4-ethyl-3-(6-methyl-2,4-dioxo-1,4-dihydro-2H-thieno[2,3-d]pyrimidin-3-yl)-benzoylamino]-butyric acid], 12.6 to 100 nM.

Regarding `Cc1ccc(C(=O)N[C@@H](CC(=O)O)Cc2ccccc2C(F)(F)F)cc1-c1ccccc1C(=O)O` [Example 14, 5′-[(R)-2-Carboxy-1-(2-trifluoromethyl-benzyl)-ethylcarbamoyl]-2′-methyl-biphenyl-2-carboxylic Acid], the Ki was 1.26 to 10 nM.
